In PubChem BioAssay AID1902 (Broad Institute, 2009) one finds EC50 data, which are given here for 93 compounds.

The source made the active and inactive calls.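 How the source made its calls: active means EC50 no more than a set limit of log units above the highest dose; inactive means the rest.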

This assay deals with S. pyogenes SKKanGAS, kanamycin survival, BacTiterGlo, 6 h. As to the kind of experiment: S. pyogenes SKKanGAS kanamycin growth inhibitors – SKKanGAS strain, luminescence, dose confirmation, streptokinase promoter inhibitor project, dose response (AID 1902).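 Further: lower survival reflects blocked streptokinase promoter driving kanamycin resistance gene.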
What is called EC50 is the midpoint of the concentration-response curve. As to `Cc1ccc(/C=N/NC(=O)Cc2ccc(Cl)cc2)c(O)c1`, the EC50 is 0.866 µM. Then `CCN1CCN(Cc2ccc(NC(=O)c3cc(NC(=O)c4cc(-c5ccc(OC)cc5)n[nH]4)cc(OC)c3)cc2C(F)(F)F)CC1`, with 4.26 µM. Then `Cc1cc(SCC(=O)c2ccc(O)c(O)c2)n2nc(C)c(-c3ccccc3)c2n1`, with 5.05 µM.

`FC(F)(F)c1ccccc1/C=N/n1c(C2CCCCC2)n[nH]c1=S`: the EC50 is 4.76 µM. Then `COc1ccc(Cl)cc1C(=O)NNC(=S)NC(=O)c1cc(-c2ccc(Cl)cc2)nc2ccccc12`, with 0.254 µM; and `CC(/C=C1\SC(=S)N(NS(=O)(=O)c2ccccc2)C1=O)=C\c1ccccc1`, with 5.38 µM; and `CC(C)=CCc1c2c(c3occ(-c4ccc(O)cc4)c(=O)c3c1O)C=CC(C)(C)O2`, with 0.876 µM.

As to `O=C(c1cc2ccccc2cc1O)N1CCN(c2ccccc2O)CC1`, the concentration for a half-maximal effect (EC50) is 9.87 µM. Then `CCCCC/C=C\C/C=C\C/C=C\C/C=C\CCCC(=O)Nc1ccc(O)cc1`, with 1.2 µM; and `S=C(NCc1ccco1)N1CCN(c2nc(-c3ccc(Cl)cc3)cs2)CC1`, with 9.92 µM; and `COC(=O)C1(C(C[N+](=O)[O-])c2ccc(C)cc2)C(=O)NCC1c1ccco1` (stereo not drawn), with 7.39 µM. With `N#Cc1c(NC(=S)NC(=O)C2CCCC2)sc2c1CCCCC2`, the EC50 is 6.33 µM. Then `O=C(c1cnn2c(C(F)(F)F)cc(-c3ccc(F)cc3)nc12)N1CCc2ccccc2C1`, with 12.1 µM; and `CC1Oc2cc3oc4c(O)c(O)ccc4c(=O)c3c(O)c2C1(C)C` (stereo not drawn), with 5.89 µM. Then `N#C/C(=C(/O)Cc1cccc2ccccc12)c1nc2ccccc2s1`, with 1.36 µM. Consider `CCOc1cc(N2CCOCC2)c(OCC)cc1NC(=O)C1=NN(c2cccc(C)c2)C(=O)CC1`, for which the EC50 is 13.1 µM. Then `Cc1cc(NC(=O)c2ccc(C)s2)n(-c2nc3ccccc3[nH]2)n1`, with 3.44 µM; and `CCOC(=O)c1c(-c2ccc(C)cc2)csc1NC(=O)CCN1CCOCC1`, with > 15 µM (inactive); and `COc1cnc(-c2ccccn2)nc1Oc1ccccc1`, with 2.03 µM.

With `CN1CCN(NC(=O)Nc2cc(Cl)cc(Cl)c2)CC1`, the EC50 was 3.72 µM. Regarding `Cc1cc(C)c2ccc(N)nc2c1O`, the EC50 is 3.33 µM. For `Cc1cc(C)c2nc(NNC(=O)c3ccc(S(=O)(=O)N4CC(C)CC(C)C4)cc3)sc2c1` (stereo not drawn), the EC50 is 0.815 µM.

As for `Cc1ccc(C(C)C)cc1OCC(=O)Nc1ccccc1N1CCCC1`, the 50% effective concentration (EC50) was 3.56 µM.

As to `COc1ccc(/C=C/C(=O)NC(=S)NNC(=O)[C@H]2C[C@@H]2c2ccccc2)cc1OC`, the EC50 was 0.362 µM. Then `CCOC(=O)c1c(NC(=S)N2CCN(C)CC2)sc(C)c1-c1ccccc1`, with 6.51 µM; and `COc1ccccc1C(=O)NNC(=S)NC(=O)c1cc(OC)c(OC)c(OC)c1`, with 0.98 µM. Then `Cc1cc(C)c(C(=O)CC(=O)c2ccccc2Cl)c(O)c1`, with 6.76 µM.

Consider `CC(C)=CCC12Oc3cc(O)ccc3C1(O)Oc1cc(O)c([C@H]3C=C(C)CC(c4ccc(O)cc4O)[C@H]3C(=O)c3ccc(O)cc3O)c(O)c1C2=O` (stereo partly drawn), for which the EC50 is 1.21 µM. Then `CC(C)c1ccc(NC(=O)c2cc(S(=O)(=O)NCC3COc4ccccc4O3)ccc2F)cc1` (stereo not drawn), with 5.37 µM; and `CCc1ccc(S(=O)(=O)/N=C2\C=C(Nc3ccc(O)cc3)C(=O)c3ccccc32)cc1`, with 1.51 µM. Then `Cc1ccc(S(=O)(=O)CNC(=S)c2ccc3ccccc3c2)cc1`, with 4.18 µM.

Turning to `COc1cccc(NC(=O)NCCCCc2ccccc2)c1`, the EC50 was > 15 µM (inactive). Then `CC(C)(C)NC(=O)C1CC2CCCCC2CN1` (stereo not drawn), with > 15 µM (inactive). Then `Cc1ccnc(NC(=S)N2CCN(c3cccc(C(F)(F)F)c3)CC2)c1`, with 1.65 µM; and `CC(=O)c1c(C)[nH]c(C(=O)Nc2nc(-c3ccc(-c4ccccc4)cc3)cs2)c1C`, with 4.14 µM; and `CC(=O)Oc1c(-c2ccc(Br)o2)oc2ccccc2c1=O`, with 3.34 µM. Turning to `COc1ccc(NS(=O)(=O)c2ccc3nc(COc4cccc5ccccc45)[nH]c3c2)cc1`, the EC50 was 5.97 µM. Regarding `CCn1cnc2c1c(=O)n(CC(=O)Nc1cc(C)on1)c(=O)n2Cc1ccccc1`, the EC50 is > 15 µM (inactive). Then `CCOC(=O)CC(NC(=O)CCS(=O)(=O)c1ccc2c(c1)n(C)c(=O)c(=O)n2C)c1ccc(C)cc1` (stereo not drawn), with > 15 µM (inactive); and `O=C(Nc1cccc(F)c1)N1CCCCCC1`, with > 15 µM (inactive); and `COc1cccc(/C=N/NC(=O)c2c(C)nc3ccc(Cl)cn23)c1O`, with 5.63 µM. For the compound `COc1cccc(C(=O)Nc2nnc(-c3ccc(F)cc3)o2)c1`, the EC50 was 1.28 µM.

As for `Cc1ccccc1CN1CCCN(Cc2ccc(Cl)cc2)S1(=O)=O`, the 50% effective concentration (EC50) is 4.05 µM.

Turning to `O=C(NC(=S)NNC(=O)c1ccccc1[N+](=O)[O-])c1ccc(Br)cc1`, the EC50 was 2.24 µM. Then `S=c1[nH]nc(-c2cc(-c3ccccc3)n[nH]2)n1/N=C/c1ccc(Cl)cc1`, with 8.67 µM. Then `Nc1c(Cl)cc(-c2csc(N3CCCC3c3nc4cc(Cl)c(Cl)cc4n3CCOCCO)n2)cc1Cl` (stereo not drawn), with > 15 µM (inactive).

On to `CC(/C=C/c1ccc(N(C)C)cc1)=N\N=C1\NC(=O)CC(C(=O)Nc2ccccc2)S1` (stereo not drawn), for which the EC50 is 3.16 µM.

On to `CCc1ccc(/C=N/n2c(C3CCCCC3)n[nH]c2=S)cc1`, for which the EC50 was 7.16 µM.

Take `C[C@@H](C[C@@H](O)[C@H](O)C(C)(C)O)[C@@H]1CC[C@]2(C)C3=CC[C@H]4C(C)(C)C(=O)CC[C@]4(C)[C@H]3CC[C@@]12C`: the EC50 is 2.46 µM. Then `Cc1cccc(-n2c(N)c(-c3nc4ccccc4n3C)c3nc4ccccc4nc32)c1`, with 2.26 µM. Then `O=C(NNC1=C(C(=O)C(F)(F)F)CCC1)c1ccc(Br)cc1`, with 0.926 µM; and `NNc1nc(-c2ccccc2)c2cc(Br)ccc2n1`, with 9.12 µM. Then `O=C(Nc1nnc(C2COc3ccccc3O2)o1)c1ccc(F)cc1` (stereo not drawn), with 1.47 µM; and `Cc1nc(N2CCC(C)CC2)c2c(C)c(C(=O)Nc3ccccc3C(F)(F)F)sc2n1`, with 6.04 µM. On to `O=C(Nc1cccc(NC(=O)c2ccccc2Cl)c1)c1ccc([N+](=O)[O-])o1`, for which the EC50 is 4.81 µM. Then `O=C(N/N=C\c1c(O)ccc2ccccc12)c1cncc(Br)c1`, with 1.31 µM; and `COc1ccc(C(=O)NC(=S)NNC(=O)c2ccc(C)cc2)cc1`, with 0.137 µM; and `CCn1c(SCC(=O)N2CC(C)OC(C)C2)nc2c([nH]c3ccccc32)c1=O` (stereo not drawn), with > 15 µM (inactive).

Regarding `COCCNC(=O)c1c(NC(=O)c2ccco2)n(Cc2ccccc2)c2nc3ccccc3nc12`, the EC50 was 8.51 µM.

Regarding `Cc1cc(C)c(-c2noc(C(=O)OC(C)(C)C)c2C(=O)OC(C)(C)C)c(C)c1`, the EC50 is 3.58 µM. Then `Cc1ccc(S(=O)(=O)N(C)CC(=O)N2CC(C)OC(C)C2)cc1` (stereo not drawn), with > 15 µM (inactive). Then `c1ccc(/N=C2\N=C(Nc3ccccn3)c3ccccc32)nc1`, with 2.44 µM. As for `Cc1cccc(C(=O)NNC(=O)c2c(O)c3ccccc3n(C)c2=O)c1`, the EC50 is 6.96 µM.

Consider `Cc1c(Cc2ccccc2)c(=O)oc2cc(OCc3ccc(C(=O)O)cc3)ccc12`, for which the EC50 was 5.9 µM. Consider `Nc1nonc1-c1nc2ccccc2n1CC(=O)N/N=C\c1ccc(-c2ccc(Cl)cc2)o1`, for which the EC50 is 1.07 µM.

With `COc1ccc(CN2C(=O)c3ccccc3C(/C=N/OCc3ccc(Cl)cc3)C2=O)cc1` (stereo not drawn), the half-maximal effective concentration (EC50) was 1.11 µM. Then `Cn1c(Sc2ccccc2Cl)c(C=O)c2ccccc21`, with 5.92 µM; and `CCC(O)(CC)C(=O)N/N=C/c1cc(Br)cc(Br)c1O`, with 2.64 µM; and `O=C(Oc1cccc(/C=N/Nc2nc(Nc3ccccc3)nc(N3CCOCC3)n2)c1)c1ccco1`, with 2.03 µM.

With `COc1cccc(NCc2cc(=O)oc3cc(C)c(O)cc23)c1`, the EC50 is 1.85 µM. Then `Cc1nc(N)sc1-c1csc(N(C)c2ccc(O)cc2)n1`, with 3.57 µM; and `O=C(CNC(=O)c1ccco1)NCc1nc2ccccc2[nH]1`, with > 15 µM (inactive). In the case of `COc1ccc(NP(=O)(Oc2ccc(Cl)cc2)Oc2ccc(Cl)cc2)cc1OC`, the EC50 was 7.25 µM.

For `COc1ccccc1N=C1NC(=O)/C(=C/c2ccc(N(C)C)cc2)S1`, the EC50 was 6.08 µM. Then `O=C1NC(=Nc2ccc(Cl)cc2)SC1Cc1cccc(Cl)c1Cl` (stereo not drawn), with 6.95 µM; and `CCC(CC)NC(=O)c1oc2ccccc2c1COc1ccccc1`, with 13 µM; and `CC(=O)Nc1ccc(S(=O)(=O)N2CCN=C2SCc2ccc(C)cc2)cc1`, with > 15 µM (inactive).

Regarding `COc1ccc(-c2cc3nc4ccccc4n3c(N)c2C#N)cc1`, the EC50 was 4.21 µM.

For `Cc1ccc(S(=O)(=O)Nc2ccc(Cl)cc2)cc1NC(=O)c1cc2c(s1)CCCC2`, the concentration giving a half-maximal response (EC50) was 6.63 µM.

In the case of `COc1ccc2nc(-n3c(C)ccc3C)sc2c1`, the EC50 was > 15 µM (inactive). Then `Cc1onc(-c2ccccc2)c1C(=O)NNC(=S)NC(=O)c1ccc2c(c1)OCO2`, with 0.589 µM; and `Cc1coc2c1C(=O)C(=O)c1c-2ccc2c(C)cccc12`, with 2.75 µM. Then `Cc1cc(=O)c(C(=O)O)cn1Nc1ccc(Cl)cc1`, with 2.36 µM; and `Cc1cccc(NC2=NC(C)(C)N=C(N)N2)c1`, with 0.109 µM.

Regarding `CNc1ccc2oc(C[C@H]3O[C@@]4(CC[C@H]3C)O[C@H]([C@H](C)C(=O)c3ccc[nH]3)[C@H](C)C[C@H]4C)nc2c1C(=O)O`, the concentration for a half-maximal effect (EC50) is less than 0.06 µM. Then `Cc1ccc(O)c(C(=O)CC(=O)c2ccccc2Cl)c1`, with 3.52 µM; and `COc1ccc(-n2c(SCC(=O)Nc3ccccc3)nc(O)cc2=O)cc1`, with 15.2 µM; and `Cc1cccc(OCC(=O)Nc2ccncc2)c1`, with > 15 µM (inactive).

In the case of `COCCn1c(N)c(C(=O)Nc2sc3c(c2C(=O)OC)CCCC3)c2nc3ccccc3nc21`, the EC50 was 4.57 µM. Then `COc1ccc(-c2c(C(F)(F)F)[nH]n3c(=O)cc(-c4ccccc4)nc23)cc1`, with 4.73 µM; and `C/C(CC(=O)Nc1ccc(Cl)c(C(F)(F)F)c1)=N\NC(=O)c1cc2ccccc2cc1O`, with 1.58 µM; and `CN(C(=S)NC(=O)c1ccccc1)C1CCCCC1`, with > 15 µM (inactive).

`Oc1c(Cl)cc(Cl)c(Cl)c1Cc1c(O)c(Cl)cc(Cl)c1Cl`: the half-maximal effective concentration (EC50) is 0.202 µM.
